Source: the NIST ThermoML archive (doi:10.1021/je1003466)
Values joined by “and” are separate entries in the source; they are usually repeats but may differ in a detail not shown here. Identical values can stand only once. ± gives the expanded uncertainty stated by the source.

Experiment: mn = molality of the nth substance listed, in mol/kg
Conditions: 298.15 K, 101 kPa, Liquid

With CNC=O [N-methylformamide] + O the mass density (m1 = 0.1996) was 997.54 ± 0.31 kg/m3, the mass density (m1 = 0.2) was 997.53 ± 0.31 kg/m3 and 997.55 ± 0.31 kg/m3 and the mass density (m1 = 0.3493) was 997.91 ± 0.31 kg/m3. For the same molecule, the mass density (m1 = 0.5018) was 998.28 ± 0.32 kg/m3, the mass density (m1 = 0.5044) was 998.28 ± 0.32 kg/m3 and the mass density (m1 = 0.5343) was 998.34 ± 0.32 kg/m3. It also gave a mass density (m1 = 0.9779) of 999.42 ± 0.34 kg/m3, a mass density (m1 = 0.9919) of 999.46 ± 0.34 kg/m3 and a mass density (m1 = 1.011) of 999.49 ± 0.34 kg/m3. For the same molecule, the mass density (m1 = 1.499) was 1000.63 ± 0.37 kg/m3, the mass density (m1 = 1.5) was 1000.62 ± 0.37 kg/m3 and the mass density (m1 = 1.505) was 1000.65 ± 0.37 kg/m3. For the same molecule, the mass density (m1 = 2.006) was 1001.79 ± 0.4 kg/m3, the mass density (m1 = 2.011) was 1001.79 ± 0.4 kg/m3 and the mass density (m1 = 2.012) was 1001.79 ± 0.4 kg/m3. The mass density (m1 = 2.47) was 1002.77 ± 0.44 kg/m3, the mass density (m1 = 2.497) was 1002.77 ± 0.44 kg/m3 and the mass density (m1 = 2.513) was 1002.86 ± 0.44 kg/m3. It also gave a mass density (m1 = 3.022) of 1003.9 ± 0.48 kg/m3, a mass density (m1 = 3.05) of 1003.95 ± 0.48 kg/m3 and a mass density (m1 = 3.068) of 1004 ± 0.48 kg/m3. For the same molecule, the mass density (m1 = 3.496) was 1004.81 ± 0.52 kg/m3, the mass density (m1 = 3.499) was 1004.82 ± 0.52 kg/m3 and 1004.81 ± 0.52 kg/m3 and the mass density (m1 = 3.989) was 1005.73 ± 0.57 kg/m3. The mass density (m1 = 3.992) was 1005.74 ± 0.57 kg/m3 and the mass density (m1 = 3.997) was 1005.73 ± 0.57 kg/m3.
